Results: patent publication US5914242A, “Method for diminishing myocardial infarction using protein phosphatase inhibitors” (priority 1997, dated 1999)

Tests used:
rPP1 = experiment: Inhibition of recombinant PP1; format: biochemical; details: bacterially expressed human PP1
Description: (§1) PP1, an enzyme highly homologous to PP2A, could be expressed in a stable manner and in relatively large amounts. Thus, human PP1 was cloned and subcloned into a bacterial expression vector as was done for PP2A. […] To create a hybrid enzyme (a PP1/PP2A chimera) that could be expressed stably like rPP1 but would bind okadaic acid with high affinity like PP2A, a number of mutant forms of PP1 and PP2A were constructed. Then, through mutational analysis, the okadaic acid binding domain of PP2A was identified. The okadaic acid binding domain from PP2A was cloned behind the amino terminal domain of PP1. The hybrid, referred to as CRHM-2, was subcloned into an expression vector. Restriction analysis of CRHM-2 confirmed the identity of the construct.

PP1/PP2A-chimera (CRHM2) = experiment: Inhibition of recombinant PP1/PP2A chimera; format: biochemical, human PP1 / bovine PP2A; details: enzyme printed as rPP2Ac-1
Description: FIG. 6: Sequence of a PP1/PP2A chimera. To characterize the fostriecin binding site, the N-terminal region of PP1 was ligated to the C-terminal region of PP2A (in bold) to produce a PP1/PP2A-chimera (CRHM2). Previous studies indicate that the okadaic acid binding domain is contained in the C-terminal region of PP2A that was incorporated into CRHM2.
FIG. 7: Effect of fostriecin and okadaic acid on the activity of recombinant CRHM2. CRHM2 activity was assayed in the presence of the indicated amount of fostriecin (FIG. 7A) or okadaic acid (FIG. 7B). […] Assays were conducted as described in FIG. 5. Each point represents the mean ± SE (n>6).
as §1
In these studies, the bacterial expressed PP1/PP2A hybrid enzyme was produced by growing appropriate strains of transformed E. coli at 18° C. for 48 hours in LB-media containing 50 μg/ml ampicillin, 1 mM MnCl2, and 50 μM IPTG. The bacteria were lysed with a French Press, and after centrifugation at 15,000×g for 45 min, the phosphatase was partially purified via ion-exchange [High Q (BioRad) and MonoQ (Pharmacia)] and affinity [Heparin-Sepharose (Pharmacia)] chromatography. The sensitivity of the chimera to fostriecin was determined employing the same protein phosphatase assay employed with endogenous PP1 or PP2A, with the addition of MnCl2 (1 mM) to the assay buffer.

**Q.** How did the “sensitivity of rPP1 to inhibition, relative to PP2A” value (rPP1) turn out when `C=C1[C@@H](O)[C@@H]2O[C@]3(CC[C@H](/C=C/[C@@H](C)[C@@H]4CC(C)=C[C@@]5(O[C@H](C[C@@](C)(O)C(=O)O)CC[C@H]5O)O4)O3)CC[C@H]2O[C@@H]1[C@@H](O)C[C@H](C)[C@H]1O[C@@]2(CCCCO2)CC[C@H]1C` [okadaic acid, reference compound] was run?
**A.** less sensitive to inhibition by okadaic acid than PP2A

**Q.** What about the “binding affinity to the recombinant hybrid enzyme” value (PP1/PP2A-chimera (CRHM2)) of the same compound?
**A.** comparable affinity to PP2A
